Data published in patent US20230023009A1, “HETEROCYCLIC COMPOUNDS AND METHODS OF USE THEREOF” (SPARCBIO LLC, priority 2020, published 2023).
pIC50: −log10 of the molar value. Like-named read-outs stand apart in the source and are kept apart here.

Columns and labels:
KRAS G12C protein = KRAS G12C protein (Homo sapiens, UniProt P01116, G12C); assay: Nucleotide exchange assay (Method III, KRAS G12C/Raf-RBD TR-FRET); type: biochemical; details: SOS1-mediated exchange of GDP for GTP, 18 hr compound incubation
KRAS G12C protein, sequence (P01116 1-188 isoform P01116-2 G12C): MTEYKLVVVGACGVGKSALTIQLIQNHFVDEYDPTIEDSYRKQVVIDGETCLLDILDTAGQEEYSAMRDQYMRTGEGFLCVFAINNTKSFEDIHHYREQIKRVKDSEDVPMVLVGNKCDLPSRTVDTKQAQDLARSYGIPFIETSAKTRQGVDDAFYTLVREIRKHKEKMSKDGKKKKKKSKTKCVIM
Description: Method III. Inhibition of SOS1-mediated exchange of GDP for GTP on the KRAS G12C protein was measured in a biochemical assay that monitors association of KRAS G12C protein with the Ras-binding domain of Raf (Raf-RBD), where the association is coupled to exchange of GDP to GTP on the KRAS G12C protein. The assay was performed at WuXi AppTec (Shanghai, China). Compounds were serially diluted in 3-fold dilutions to 11 concentrations and spotted into the wells of an assay plate in a total volume of 150 nL DMSO per well. A 2× enzyme mix was prepared by diluting GDP-bound, His-tagged KRAS G12C to 25 nM in assay buffer. 10 μL/well of 2× enzyme mix was added to all wells, and the plate was sealed and incubated overnight (18 hr) at 23° C. 4×SOS1/GDP and 4×SOS1/GTP were prepared in assay buffer. 5 μL/well of 4×SOS1/GDP mix was added to negative control wells, 5 μL/well of 4×SOS1/GTP mix was added to the remaining wells, and the plate was further incubated at 23° C. for 1 hr. Finally, FLAG-tagged Raf-RBD is added to the reaction mixture along with a pair of FRET donor- and acceptor-conjugated antibodies specific for the FLAG-tagged Raf-RBD and His-tagged KRAS G12C proteins. A 4×Raf-RBD/Tb-anti-FLAG/D2-anti-His mix was prepared in assay buffer, and 5 μL/well of the mix was added to all wells, followed by incubation at room temperature for 2 hr. The TR-FRET signals, which increase with association of KRAS G12C and Raf-RBD, were measured on a Perkin Elmer Envision 2104 plate reader, and data were analyzed by non-linear regression to obtain IC50 values for inhibition by compounds. Table 2 includes results of the assay of Method III. ‘+++’ indicates IC50 values≤300 nM, ‘++’ indicates IC50 values between 300 nM-3 μM, and ‘+’ indicates IC50 values≥3 μM.

MIA PaCa-2 = assay: Cell proliferation assay panel (Cell Titer-Glo, 72 hr); type: cell-based
Description: Potency of compounds was determined in cell proliferation assays in a panel of cancer cell lines. Cells were seeded in 384-well plates (Corning, Cat. #3765) at specified densities in 40 μL of culture medium and incubated overnight at 37° C. in a 5% CO2 incubator (culture conditions). With a robotic dispenser, serially diluted test compounds were added in a volume of 20 nL DMSO to wells in the culture plate to achieve the final desired concentrations of test compounds, and the cells were further incubated in culture conditions for 72 hr. The assay was terminated by addition of 25 μL of Cell Titer-Glo reagent (Promega, Madison, Wis.) to each well. Contents were mixed, the plate was incubated for 10 min at room temperature and luminescence was measured. The IC50 value of each test compound was calculated with XLFit curve fitting software. Results are shown in Table 4. ‘+++’ indicates IC50 values≤300 nM, ‘++’ indicates IC50 values between 300 nM-3 μM, and ‘+’ indicates IC50 values≥3 μM.

NCI-H358 cells = assay: 3D cell proliferation assay (Cell Titer-Glo 3D, 7 days); type: cell-based; details: NCI-H358 3D, ultra-low attachment plate
Description: NCI-H358 cells (ATCC® CRL-5807™) were plated in a 384-well Black/Clear Round Bottom Ultra-Low Attachment Microplate (Corning) in medium (RPMI-1640+10% FBS) at a density of 1000 cells in 50 μL per well, then incubated overnight at 37° C. and 5% CO2. Cells were treated with test compounds at 9 concentrations within a specified concentration range (e.g., 0.5 nM-10 μM) for generation of dose response curves. Test compounds were prepared by 1:3 serial dilution in DMSO from a specified starting concentration (e.g., 20 μM, 2 μM or 0.2 μM) and then added to wells of the assay plate in a total volume of 150 nL DMSO. The cells were further incubated at 37° C. and 5% CO2 for 7 days. Cell viability was assessed by adding 40 μL of Cell Titer-Glo® 3D reagent (Cat. No.: G9683, Promega) to each well and reading luminescence after mixing and incubation of the samples. The IC50 value of each test compound was calculated with XLFit curve fitting software.

[1] = system: NCI-H358 subcutaneous xenograft tumors; assay: NCI-H358 mouse xenograft model
Description: NCI-H358 cells were injected subcutaneously (5×10^6 cells in 0.1 mL of PBS) into the right flanks of 6-8-week-old female BALB/c nude mice and allowed to grow until the average tumor size reached 150-200 mm^3. The mice were then stratified into treatment groups of 4-8 animals and treatment initiated on Day 0. Test compound or vehicle (1% Tween 80, 2% HPMC, and 97% water) was administered orally, once daily, for 21 days. Tumor size was measured twice weekly in two dimensions using a caliper, and the volume was expressed in mm^3 using the formula: V=(a×b^2/2) where a and b are the long and short diameters of the tumor, respectively. Tumor Growth Inhibition (TGI) was calculated for each group using the formula: TGI %=(1−Ti/Vi)×100, where Ti is the mean tumor volume of the treatment group on the measurement day, and Vi is the mean tumor volume of the control group on the measurement day. Animal body weight was monitored regularly as an indicator of toxicity. […] Data points represent the group mean, and error bars represent the standard error of the mean (SEM).

Row | SMILES | pIC50 (KRAS G12C protein) | pIC50 (NCI-H358 cells; Homo sapiens, NCI-H358, 168 h) | further results
1 | C=C(F)C(=O)N1CCN(c2nc(OC[C@H]3CCCN3C)nc3c2COC(c2cccc4cccc(Cl)c24)C3)C[C@@H]1CC#N (single isomer, unassigned) [267 (Isomer A)] | 5.52 to 6.52 | – | pIC50 (MIA PaCa-2): ≤ 5.52
2 | C=C(F)C(=O)N1CCN(c2nc(OC[C@@H]3CCCN3C)nc3c2COC(c2cccc4sc(N)nc24)C3)C[C@@H]1CC#N (single isomer, unassigned) [260 (Isomer A)] | ≥ 6.52 | 5.70 to 7.00 | pIC50 (MIA PaCa-2; Homo sapiens, MIA PaCa-2, 72 h): 5.52 to 6.52
3 | C=CC(=O)N1CCN(c2nc(OC[C@@H]3CCCN3C)nc3c2COC(c2cccc4cccc(Cl)c24)C3)CC1 (single isomer, unassigned) [40 (Isomer A)] | ≥ 6.52 | – | pIC50 (NCI-H358 cells): 5.70 to 7.00
4 | C=C(F)C(=O)N1CCN(c2nc(OCC34CCCN3CCC4)nc3c2COC(c2cccc4cccc(Cl)c24)C3)C[C@@H]1CC#N (single isomer, unassigned) [266 (Isomer B)] | ≥ 6.52 | ≥ 7.00 | pIC50 (MIA PaCa-2): ≥ 6.52
5 | C=C(F)C(=O)N1CCN(c2nc(OC[C@@H]3CC(F)(F)CN3C)nc3c2COC(c2cccc4cccc(Cl)c24)C3)C[C@@H]1CC#N (single isomer, unassigned) [228 (Isomer A)] | ≥ 6.52 | – | pIC50 (MIA PaCa-2; Homo sapiens, MIA PaCa-2, 72 h): 5.52 to 6.52; pIC50 (NCI-H358 cells): ≥ 7.00
6 | C=C(F)C(=O)N1CCN(c2nc(OCC34CCCN3CCC4)nc3c2COC(c2cccc4cccc(Cl)c24)C3)C[C@@H]1CC#N (single isomer, unassigned) [266 (Isomer A)] | 5.52 to 6.52 | – | pIC50 (MIA PaCa-2; Homo sapiens, MIA PaCa-2, 72 h): 5.52 to 6.52
7 | C=CC(=O)N1CCN(c2nc(OC[C@@H]3CCCN3C)nc3c2CC=C(c2cccc4cccc(Cl)c24)O3)C[C@@H]1CC#N [Compound 181, 2-((S)-1-acryloyl-4-(7-(8-chloronaphthalen-1-yl)-2-(((S)-1-methylpyrrolidin-2-yl)methoxy)-5H-pyrano[2,3-d]pyrimidin-4-yl)piperazin-2-yl)acetonitrile] | ≥ 6.52 | ≥ 7.00 | –
8 | C=CC(=O)N1CCN(c2nc(OC[C@@H]3CCCN3C)nc3c2COC(c2cccc4cccc(Cl)c24)C3)C[C@@H]1CC#N (single isomer, unassigned) [38 (Isomer B)] | ≥ 6.52 | ≥ 7.00 | TGI ([1]; 10 mg/kg orally once daily, Day 20 after treatment start): 22.4%; TGI ([1]; 30 mg/kg orally once daily, Day 20 after treatment start (day not restated for comparators)): 26.7%; TGI ([1]; 100 mg/kg orally once daily, Day 20 after treatment start): 50.4%
9 | C=C(Cl)C(=O)N1CCN(c2nc(OC[C@@H]3CCCN3C)nc3c2COC(c2cccc4cccc(Cl)c24)C3)C[C@@H]1CC#N (single isomer, unassigned) [239 (Isomer B)] | ≥ 6.52 | ≥ 7.00 | pIC50 (MIA PaCa-2; Homo sapiens, MIA PaCa-2, 72 h): ≥ 6.52
10 | C=C(F)C(=O)N1CCN(c2nc(OC[C@@H]3CCCN3C)nc3c2COC(c2nc(N)cc4ccccc24)C3)C[C@@H]1CC#N (single isomer, unassigned) [259 (Isomer B)] | ≥ 6.52 | – | pIC50 (MIA PaCa-2): ≥ 6.52
11 | C=C(F)C(=O)N1CCN(c2nc(OC[C@@H]3CC(F)(F)CN3C)nc3c2COC(c2cccc4cccc(Cl)c24)C3)C[C@@H]1CC#N (single isomer, unassigned) [228 (Isomer B)] | ≤ 5.52 | – | pIC50 (NCI-H358 cells): ≤ 5.70
12 | C=C(F)C(=O)N1CCN(c2nc(OC[C@H]3CCCN3C)nc3c2COC(c2cccc4cccc(Cl)c24)C3)C[C@@H]1CC#N (single isomer, unassigned) [267 (Isomer B)] | ≥ 6.52 | – | pIC50 (MIA PaCa-2): ≥ 6.52
13 | C=C(F)C(=O)N1CCN(c2nc(OC[C@@H]3CCCN3C)nc3c2COC(c2cccc4cccc(Cl)c24)C3(C)C)C[C@@H]1CC#N (single isomer, unassigned) [258 (Isomer B)] | ≥ 6.52 | ≥ 7.00 | pIC50 (MIA PaCa-2; Homo sapiens, MIA PaCa-2, 72 h): ≥ 6.52
14 | C=C(F)C(=O)N1CCN(c2nc(OC[C@@H]3CCCN3C)nc3c2COC(c2nc(N)cc4ccccc24)C3)C[C@@H]1CC#N (single isomer, unassigned) [259 (Isomer A)] | 5.52 to 6.52 | – | pIC50 (MIA PaCa-2): ≤ 5.52
15 | C=C(F)C(=O)N1CCN(c2nc(OC3CN(C)CC3C)nc3c2COC(c2cccc4cccc(Cl)c24)C3)C[C@@H]1CC#N (single isomer, unassigned) [272 (Isomer D)] | 5.52 to 6.52 | – | –
16 | C=CC(=O)N1CCN(c2nc(OC[C@@H]3CCCN3C)nc3c2OCC(c2cccc4cccc(Cl)c24)O3)CC1 (single isomer, unassigned) [135 (Isomer B)] | ≤ 5.52 | – | –
17 | C=C(F)C(=O)N1CCN(c2nc(N3CCC(N(CC)CC)CC3)nc3c2COC(c2cccc4cccc(Cl)c24)C3)C[C@@H]1CC#N (single isomer, unassigned) [230 (Isomer A)] | ≤ 5.52 | – | –
18 | C=CC(=O)N1CCN(c2nc(OC[C@@H]3CCCN3C)nc3c2COC(c2cccc4cccc(Cl)c24)C3)CC1 (single isomer, unassigned) [40 (Isomer B)] | ≤ 5.52 | – | pIC50 (NCI-H358 cells): ≤ 5.70
19 | C=C(F)C(=O)N1CCN(c2nc(OC[C@@H]3CCCN3C)nc3c2CO[C@H](c2cccc4cccc(Cl)c24)C3)C[C@@H]1CC#N (single isomer, unassigned) [43 (Isomer A)] | ≤ 5.52 | ≤ 5.70 | –
20 | C=C(F)C(=O)N1CCN(c2nc(OC[C@@H]3CCCN3C)nc3c2CC=C(c2cccc4cccc(Cl)c24)O3)C[C@@H]1CC#N [Compound 178, 2-((S)-4-(7-(8-chloronaphthalen-1-yl)-2-(((S)-1-methylpyrrolidin-2-yl)methoxy)-5H-pyrano[2,3-d]pyrimidin-4-yl)-1-(2-fluoroacryloyl)piperazin-2-yl)acetonitrile] | ≥ 6.52 | 5.70 to 7.00 | –
21 | C=C(F)C(=O)N1C[C@H](C)N(c2nc(OC[C@@H]3CCCN3C)nc3c2COC(c2cccc4cccc(Cl)c24)C3)C[C@H]1C (single isomer, unassigned) [235 (Isomer B)] | ≤ 5.52 | – | –
22 | C=C(F)C(=O)N1CCN(c2nc(OC[C@@H]3CCCN3C)nc3c2COC(c2cccc4cccc(Cl)c24)C3)C[C@H]1C (single isomer, unassigned) [42 (Isomer A)] | ≤ 5.52 | – | –
23 | C=C(F)C(=O)N1CCN(c2nc(NC3CCN(S(C)(=O)=O)CC3)nc3c2COC(c2cccc4cccc(Cl)c24)C3)C[C@@H]1CC#N (single isomer, unassigned) [231 (Isomer B)] | ≤ 5.52 | – | –
24 | CC#CC(=O)N1CCN(c2nc(OC[C@@H]3CCCN3C)nc3c2COC(c2cccc4cccc(Cl)c24)C3)C[C@@H]1CC#N (single isomer, unassigned) [243 (Isomer A)] | ≤ 5.52 | – | –
25 | C=CC(=O)N1CCN(c2nc(OC[C@@H]3CCCN3C)nc3c2COC(c2cccc4cccc(Cl)c24)C3)C[C@@H]1CC#N (single isomer, unassigned) [38 (Isomer A)] | 5.52 to 6.52 | – | –
